# Source: US12097202B2 (Kadmon Corporation, LLC, priority 2022, dated 2024)
# Columns and labels:
# [1] = molecular target: CYP2D6 (Homo sapiens, UniProt P10635); assay: In vitro enzyme inhibition, CYP2D6; format: in vitro ADME
# [2] = test system: patients with chronic GVHD; assay: Pooled adverse reactions and laboratory abnormalities, 83 adult chronic GVHD patients on 200 mg once daily (KD025-213 and KD025-208); format: in vivo, human; conditions: for Alanine Aminotransferase Increased / Alkaline Phosphatase Increased / Calcium Decreased / Creatinine Increased / Gamma Glutamyl Transferase Increased / Hemoglobin Decreased / Lymphocytes Decreased / Neutrophil Count Decreased / Phosphate Decreased / Platelets Decreased / Potassium Increased: Grade 0-1 Baseline
# Description: The median duration of treatment was 9.2 months (range 0.5 to 44.7 months).
# [3] = test system: dogs; assay: General toxicology studies in dogs; format: in vivo, dog
# [4] = test system: bacterial mutagenicity (Ames); assay: in vitro bacterial mutagenicity (Ames) assay; format: cell-based
# [5] = molecular target: T1, BCRP (Homo sapiens, UniProt Q9UNQ0); assay: In vitro transporter study, BCRP; format: in vitro ADME; conditions: at clinically relevant concentrations
# T1 sequence (Q9UNQ0 1-655): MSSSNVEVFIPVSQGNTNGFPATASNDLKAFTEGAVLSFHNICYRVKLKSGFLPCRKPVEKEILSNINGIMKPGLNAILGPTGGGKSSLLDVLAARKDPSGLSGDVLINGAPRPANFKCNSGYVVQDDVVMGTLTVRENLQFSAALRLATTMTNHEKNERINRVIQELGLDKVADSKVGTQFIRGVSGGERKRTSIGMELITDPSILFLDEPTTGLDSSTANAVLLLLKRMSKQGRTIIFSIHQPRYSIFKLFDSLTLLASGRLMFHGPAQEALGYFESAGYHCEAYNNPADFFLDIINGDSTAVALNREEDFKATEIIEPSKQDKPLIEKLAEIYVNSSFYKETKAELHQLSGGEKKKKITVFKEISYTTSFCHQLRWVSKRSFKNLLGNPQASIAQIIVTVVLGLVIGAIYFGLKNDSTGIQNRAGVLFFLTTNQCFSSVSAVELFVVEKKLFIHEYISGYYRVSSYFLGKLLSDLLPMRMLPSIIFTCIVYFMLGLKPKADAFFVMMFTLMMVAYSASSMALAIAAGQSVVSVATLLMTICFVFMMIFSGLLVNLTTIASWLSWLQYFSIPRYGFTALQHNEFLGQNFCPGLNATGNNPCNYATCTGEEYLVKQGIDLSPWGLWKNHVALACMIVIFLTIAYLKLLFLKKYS
# [6] = test system: rat bone marrow; assay: in vivo rat bone marrow micronucleus assay
# [7] = molecular target: T2, OATP1B1 (Homo sapiens, UniProt Q9Y6L6); assay: In vitro transporter study, OATP1B1; format: in vitro ADME; conditions: at clinically relevant concentrations
# T2 sequence (Q9Y6L6 1-691): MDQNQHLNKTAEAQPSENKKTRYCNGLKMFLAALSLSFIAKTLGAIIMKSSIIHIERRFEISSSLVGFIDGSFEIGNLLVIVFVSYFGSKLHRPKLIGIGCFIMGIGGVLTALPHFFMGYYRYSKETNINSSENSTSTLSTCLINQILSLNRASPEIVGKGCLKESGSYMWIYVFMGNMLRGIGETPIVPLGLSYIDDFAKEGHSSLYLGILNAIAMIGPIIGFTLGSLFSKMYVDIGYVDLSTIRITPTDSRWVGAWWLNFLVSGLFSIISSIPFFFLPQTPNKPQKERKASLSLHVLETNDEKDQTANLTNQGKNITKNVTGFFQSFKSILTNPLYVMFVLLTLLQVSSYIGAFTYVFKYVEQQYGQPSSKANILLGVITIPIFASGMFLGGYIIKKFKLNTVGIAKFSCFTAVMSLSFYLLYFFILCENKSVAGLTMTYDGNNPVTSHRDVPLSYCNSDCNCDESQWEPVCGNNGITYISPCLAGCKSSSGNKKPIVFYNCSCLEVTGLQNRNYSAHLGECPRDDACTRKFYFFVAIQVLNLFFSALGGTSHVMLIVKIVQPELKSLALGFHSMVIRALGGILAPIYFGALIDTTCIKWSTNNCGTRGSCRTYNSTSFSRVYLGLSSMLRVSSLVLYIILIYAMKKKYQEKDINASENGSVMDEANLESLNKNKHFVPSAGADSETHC
# [8] = test system: rats; assay: Combined male and female rat fertility study; format: in vivo; conditions: oral
# Description: In a combined male and female rat fertility study, belumosudil-treated male animals were mated with untreated females, or untreated males were mated with belumosudil-treated females.
# [9] = Clinical pharmacokinetics in healthy subjects (bioavailability, food effect, distribution, excretion); format: in vivo, human
# [10] = single oral dose of radiolabeled belumosudil
# Chain of CYP2D6 (P10635 whole entry): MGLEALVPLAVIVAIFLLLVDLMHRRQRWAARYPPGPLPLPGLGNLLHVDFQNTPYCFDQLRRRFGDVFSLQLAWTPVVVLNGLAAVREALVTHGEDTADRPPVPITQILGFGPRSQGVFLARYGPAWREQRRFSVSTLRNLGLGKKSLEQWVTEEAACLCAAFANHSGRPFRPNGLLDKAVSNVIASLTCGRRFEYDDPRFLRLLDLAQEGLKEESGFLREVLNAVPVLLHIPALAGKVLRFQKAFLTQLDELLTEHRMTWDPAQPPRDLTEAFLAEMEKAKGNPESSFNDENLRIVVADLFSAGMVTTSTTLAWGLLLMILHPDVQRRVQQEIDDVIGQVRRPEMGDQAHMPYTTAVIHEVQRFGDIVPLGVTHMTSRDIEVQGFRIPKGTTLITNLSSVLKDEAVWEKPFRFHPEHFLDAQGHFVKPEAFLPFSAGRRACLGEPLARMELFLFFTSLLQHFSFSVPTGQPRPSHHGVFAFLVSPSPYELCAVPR
smiles,measurement,setting,value
"CC(C)NC(=O)COc1cccc(-c2nc(Nc3ccc4[nH]ncc4c3)c3ccccc3n2)c1 [belumosudil, 2-{3-[4-(1H-indazol-5-ylamino)-2-quinazolinyl]phenoxy}-N-(propan-2-yl) acetamide]",inhibition of CYP2D6,[1],inhibitor
same,Alanine Aminotransferase Increased,[2]; Grade 2-4 Max Post,7%
same,Alkaline Phosphatase Increased,[2]; Grade 2-4 Max Post,9%
same,Calcium Decreased,[2]; Grade 2-4 Max Post,12%
same,Creatinine Increased,[2]; Grade 2-4 Max Post,4%
same,Gamma Glutamyl Transferase Increased,[2]; Grade 2-4 Max Post,21%
same,Hemoglobin Decreased,[2]; Grade 2-4 Max Post,11%
same,Lymphocytes Decreased,[2]; Grade 2-4 Max Post,29%
same,Neutrophil Count Decreased,[2]; Grade 2-4 Max Post,8%
same,Phosphate Decreased,[2]; Grade 2-4 Max Post,28%
same,Platelets Decreased,[2]; Grade 2-4 Max Post,10%
same,Potassium Increased,[2]; Grade 2-4 Max Post,7%
same,Alanine Aminotransferase Increased,[2]; Grade 3-4 Max Post,2%
same,Alkaline Phosphatase Increased,[2]; Grade 3-4 Max Post,0%
same,Calcium Decreased,[2]; Grade 3-4 Max Post,1%
same,Creatinine Increased,[2]; Grade 3-4 Max Post,0%
same,Gamma Glutamyl Transferase Increased,[2]; Grade 3-4 Max Post,11%
same,Hemoglobin Decreased,[2]; Grade 3-4 Max Post,1%
same,Lymphocytes Decreased,[2]; Grade 3-4 Max Post,13%
same,Neutrophil Count Decreased,[2]; Grade 3-4 Max Post,4%
same,Phosphate Decreased,[2]; Grade 3-4 Max Post,7%
same,Platelets Decreased,[2]; Grade 3-4 Max Post,5%
same,Potassium Increased,[2]; Grade 3-4 Max Post,1%
same,"Abdominal pain, All Grades",[2]; N=83,22%
same,"Abdominal pain, Grades 3-4",[2]; N=83,1%
same,"Arthralgia, All Grades",[2]; N=83,15%
same,"Arthralgia, Grades 3-4",[2]; N=83,2%
same,"Asthenia, All Grades",[2]; N=83,46%
same,"Asthenia, Grades 3-4",[2]; N=83,4%
same,"Bacterial infection, All Grades",[2]; N=83,16%
same,"Bacterial infection, Grades 3-4",[2]; N=83,4%
same,"Cough, All Grades",[2]; N=83,30%
same,"Cough, Grades 3-4",[2]; N=83,0%
same,"Decreased appetite, All Grades",[2]; N=83,17%
same,"Decreased appetite, Grades 3-4",[2]; N=83,1%
same,"Diarrhea, All Grades",[2]; N=83,35%
same,"Diarrhea, Grades 3-4",[2]; N=83,5%
same,"Dysphagia, All Grades",[2]; N=83,16%
same,"Dysphagia, Grades 3-4",[2]; N=83,0%
same,"Dyspnea, All Grades",[2]; N=83,33%
same,"Dyspnea, Grades 3-4",[2]; N=83,5%
same,"Edema, All Grades",[2]; N=83,27%
same,"Edema, Grades 3-4",[2]; N=83,1%
same,"Headache, All Grades",[2]; N=83,21%
same,"Headache, Grades 3-4",[2]; N=83,0%
same,"Hemorrhage, All Grades",[2]; N=83,23%
same,"Hemorrhage, Grades 3-4",[2]; N=83,5%
same,"Hypertension, All Grades",[2]; N=83,21%
same,"Hypertension, Grades 3-4",[2]; N=83,7%
same,"Infection (pathogen not specified), All Grades",[2]; N=83,53%
same,"Infection (pathogen not specified), Grades 3-4",[2]; N=83,16%
same,"Muscle spasm, All Grades",[2]; N=83,17%
same,"Muscle spasm, Grades 3-4",[2]; N=83,0%
same,"Musculoskeletal pain, All Grades",[2]; N=83,22%
same,"Musculoskeletal pain, Grades 3-4",[2]; N=83,4%
same,"Nausea (includes vomiting), All Grades",[2]; N=83,42%
same,"Nausea (includes vomiting), Grades 3-4",[2]; N=83,4%
same,"Pruritus, All Grades",[2]; N=83,11%
same,"Pruritus, Grades 3-4",[2]; N=83,0%
same,"Pyrexia, All Grades",[2]; N=83,18%
same,"Pyrexia, Grades 3-4",[2]; N=83,1%
same,"Rash, All Grades",[2]; N=83,12%
same,"Rash, Grades 3-4",[2]; N=83,0%
same,"Viral infection, All Grades",[2]; N=83,19%
same,"Viral infection, Grades 3-4",[2]; N=83,4%
same,adverse reactions leading to dose interruption,[2]; N=83,29%
same,"dose interruption due to asthenia, dyspnea, hemorrhage, hypotension, liver function test abnormal, nausea, pyrexia, edema, renal failure (each)",[2]; N=83,2%
same,dose interruption due to diarrhea,[2]; N=83,4%
same,dose interruption due to infections,[2]; N=83,11%
same,permanent discontinuation due to adverse reactions,[2]; N=83,18%
same,permanent discontinuation due to nausea,[2]; N=83,4%
same,dose with spermatozoa degeneration,[3],35 mg/kg/day
same,"genotoxicity, bacterial mutagenicity (Ames) assay",[4],not genotoxic
same,inhibition of BCRP,[5],inhibits
same,"genotoxicity, bone marrow micronucleus assay",[6],not genotoxic
same,inhibition of OATP1B1,[7],inhibits
same,"dose with adverse fertility findings (pre- or post-implantation loss, fewer viable embryos, abnormal sperm, testes/epididymis changes, reduced fertility)",[8],275 mg/kg/day
same,AUC increase with high-fat and high-calorie meal vs fasted,[9]; single dose,2 times
same,Cmax increase with high-fat and high-calorie meal vs fasted,[9]; single dose,2.2 times
same,radioactivity recovered in feces,[9]; [10],85%
same,radioactivity recovered in feces as unchanged,[9]; [10],30%
same,radioactivity recovered in urine,[9]; [10],less than 5%
